Earlier results as cited in publication PMC10052035, “Virtual Screening, Structural Analysis, and Formation Thermodynamics of Carbamazepine Cocrystals” (Pharmaceutics, 2023).
Where two headings read alike, the source gives them in different places.

How the values were obtained:
[1] = 298 K, cited from earlier work
[2] = cited from earlier work

NC(=O)c1ccccn1.O=C1CN(N=Cc2ccc([N+](=O)[O-])o2)C(=O)N1 [[Nitrofurantoin + Picolinamide] (1:1)]
TΔformS ([1]; ref [19]): 0.14 ± 0.19 kcal/mol | ΔformG ([1]; ref [19]): -1.17 ± 0.12 kcal/mol | ΔformH ([1]; ref [19]): -1.05 ± 0.17 kcal/mol | TΔformS ([1]; ref [19], listed as 12): ≈ 0 kJ·mol-1

Cc1cc(O)c2c(c1)C(=O)c1cc(O)cc(O)c1C2=O [Emodin]
log(S0), intrinsic solubility ([2]; 2-propanol, ref [6]): -1.68 mol⋅L-1 | log(S0), intrinsic solubility ([2]; Acetone, ref [6]): -1.29 mol⋅L-1 | log(S0), intrinsic solubility ([2]; Ethanol, ref [6]): -1.74 mol⋅L-1 | log(S0), intrinsic solubility ([2]; Ethyl acetate, ref [6]): -1.43 mol⋅L-1

CC(O)Cc1nsc(Nc2cccc(Cl)c2)n1.COc1cc(C(=O)O)ccc1O (centres unmarked) [[XIa+Vanillic acid] (1:1)]
TΔformS ([1]; ref [12]): -1.24 ± 0.311 kcal/mol | ΔformG ([1]; ref [12]): -1.27 ± 0.096 kcal/mol | ΔformH ([1]; ref [12]): -2.51 ± 0.22 kcal/mol

O=C(O)CCCC(=O)O [Glutaric acid]
log(S0), intrinsic solubility ([2]; 2-propanol, ref [10]): 0.56 mol⋅L-1 | log(S0), intrinsic solubility ([2]; Ethanol, ref [10]): 0.45 mol⋅L-1 | log(S0), intrinsic solubility ([2]; Ethyl acetate, ref [10]): 0 mol⋅L-1

COc1cc(C=NNC(=O)c2ccncc2)ccc1O.O=C1NS(=O)(=O)c2ccccc21 [[Vanillin isoniazid + Saccharin] (1:1)]
TΔformS ([1]; ref [13]): -1.05 ± 0.454 kcal/mol | ΔformG ([1]; ref [13]): -2.17 ± 0.19 kcal/mol | ΔformH ([1]; ref [13]): -3.23 ± 0.263 kcal/mol

NCC(=O)O.NCC(=O)O.O=C(O)/C=C/C(=O)O [[Glycine + Fu maric acid] (2:1)]
TΔformS ([1]; ref [17]): -0.335 ± 0.14 kcal/mol | ΔformG ([1]; ref [17]): -1.05 ± 0.072 kcal/mol | ΔformH ([1]; ref [17]): -1.39 ± 0.12 kcal/mol
